The term GI50 denotes the concentration giving 50% growth inhibition.

2 molecules from ChEMBL document CHEMBL1201862, “PubChem BioAssay data set” (2004) can be followed below.

SMILES strings stand for the structures.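 Briefly, cells in 96-well plates were exposed to five compound concentrations for 48 h, and endpoints were estimated by linear interpolation. At the GI50, growth is halved.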 Active and inactive are the calls of the source. Rule as the data show it: active = GI50 up to about 1.1 µM and inactive = higher.

Common to all, as to experiment: DTP human tumour cell line panel, 48 h
In experiment [1] the test system is KM12.
Experiment [2] has as its system SF-268.
The test system of experiment [3] is HOP-62.
For experiment [4], the system named is MDA-MB-231.
The subject of experiment [5] is PC-3.
Experiment [6] has as its system SF-295.
Experiment [7] has as its system 786-0.
The test system of experiment [8] is M14.
Experiment [9] relates to RPMI-8226.
The subject of experiment [10] is IGROV-1.
Experiment [11] deals with BT-549.
For experiment [12], the system named is NCI-H23.
For experiment [13], the system named is SK-OV-3.
In experiment [14] the test system is MOLT-4.
The subject of experiment [15] is HT-29.
For experiment [16], the system named is SF-539.
Experiment [17] concerns OVCAR-8.
The subject of experiment [18] is SNB-75.
Experiment [19] relates to OVCAR-4.
The test system of experiment [20] is SN12C.

Regarding `COc1ccc(C(C#N)NCCCCCCNC(C#N)c2ccc(OC)cc2)cc1` (stereo not given), the GI50 in experiment [1], in experiment [2], in experiment [3], in experiment [4], in [5] and in experiment [6] was > 100 µM (inactive) in each case. Besides, the GI50 in [7], in experiment [8], in experiment [9], in experiment [10], in experiment [11] and in experiment [12] was > 100 µM (inactive) throughout. In addition, the GI50 in experiment [13], in experiment [14], in experiment [15], in experiment [16], in [17] and in experiment [18] was > 100 µM (inactive) throughout. Further, the GI50 in experiment [19] and in experiment [20] was > 100 µM (inactive) throughout.

Consider `CCC1(N)C(=O)OCc2c1cc1n(c2=O)Cc2cc3ccccc3nc2-1` (stereo not given), for which the GI50 in experiment [1] was 46.1 µM (inactive); in [2], 5.7 µM (inactive); in experiment [3], 5.69 µM (inactive); in [4], 77.4 µM (inactive); in [5], 15.2 µM (inactive); in experiment [6], 5.31 µM (inactive). For the same molecule, the GI50 in [7] is 3.74 µM (inactive); in [8] it was 7.41 µM (inactive); in experiment [9] it was 32.7 µM (inactive); in [10] it was 6.56 µM (inactive); in [11], 30.5 µM (inactive); in experiment [12], 4.56 µM (inactive). Moreover, the GI50 in experiment [13] is > 100 µM (inactive); in [14], 0.871 µM (active); in [15] it was 15 µM (inactive); in [16], 4.04 µM (inactive); in [17], 7.71 µM (inactive); in [18] it was 8.36 µM (inactive). The GI50 was 50 µM (inactive) in experiment [19] and 3.99 µM (inactive) in [20].
